Earlier results, collected in patent publication US9901554B2, “Biodegradable compositions suitable for controlled release” (INGELL TECHNOLOGIES HOLDING B.V., priority 2011, dated 2018).
Read-outs that look alike come from different tables or passages of the source.

Compound	solubility in water (small molecules and peptide)	solubility in water (model proteins)
Cc1ccc(-c2cc(C(F)(F)F)nn2-c2ccc(S(N)(=O)=O)cc2)cc1 [celecoxib]	below 1 ug/ml	–
lysozyme: water soluble model protein of around 16 kDa (Sigma)	–	above 10000 μg/ml
bovine serum albumin: water soluble model protein (Sigma)	–	above 10000 μg/ml
CN(CC(O)CO)C(=O)c1c(I)c(NC(=O)C(CO)CO)c(I)c(C(=O)N(C)CC(O)CO)c1I (centres unmarked) [iobitridol]	above 5000 ug/ml	–
CC1(C)O[C@@H]2C[C@H]3[C@@H]4CCC5=CC(=O)C=C[C@]5(C)[C@@]4(F)[C@@H](O)C[C@]3(C)[C@]2(C(=O)CO)O1 [triamcinolone acetonide]	below 20 ug/ml	–
